Results on 1 compound are retold here after US20160157477A1, “USE OF VISUAL CUES TO ENHANCE BIRD REPELLENT COMPOSITIONS” (ARKION LIFE SCIENCES, LLC, priority 2014, published 2016).

One test has as its system birds. The note with it: '678 patent; cited from earlier work.
The subject of test [1] is red-winged blackbirds. The note with it: anthraquinone only, cited from earlier work.
Test [2] deals with red-winged blackbirds. Kind of test: Threshold AQ concentration previously established for red-winged blackbirds (Werner et al. 2009). The class given is in vivo, red-winged blackbirds (Agelaius phoeniceus). The note with it: 80% repellency, anthraquinone only, interpolated between the 70% and 100% values. On the procedure: The concentration response of AQ plus TiO2 feeding cue was tested. This experiment was designed to establish a concentration response relationship of AQ plus 0.2% TiO2 treated sunflower seeds for blackbirds in captivity. The experiment was also designed to establish a threshold concentration of AQ necessary for blackbird feeding repellency when reduced by varying the concentration of AQ based repellent combined with a TiO2 feeding cue. This optimized AQ concentration was expected to be less than the threshold AQ concentration previously established for red-winged blackbirds done by Werner et al. (2009) and shown in column 2 of Table 1. Daily sunflower consumption was measured throughout the pretreatment and test phases of the experiment as previously described. Greater than 80% repellency during a captive feeding trial is the operational level for an effective repellent as has been documented in the field using AQ repellents, see Werner et al. (2009) and (2011).

With `O=C1c2ccccc2C(=O)c2ccccc21` [Anthraquinone Only, 9,10-anthraquinone], in the test with birds, the “AQ concentration to achieve 74% repellency” value is 1778 ppm. The “[AQ] ppm by weight for RWBL Repellency 20%” value in the test with red-winged blackbirds [1] (20% repellency) is given as 193 (222*20/23) ppm by weight. The “[AQ] ppm by weight for RWBL Repellency 35%” value in the test on red-winged blackbirds [1] (35% repellency) is on record as 572 (556*34/35) ppm by weight. Further, the “[AQ] ppm by weight for RWBL Repellency 50%” value with red-winged blackbirds [1] (50% repellency) is 538 (560*50/52) ppm by weight. Also, in the test with red-winged blackbirds [1] (70% repellency), the “[AQ] ppm by weight for RWBL Repellency 70%” value is listed as 1682 (1778*74/70) ppm by weight. Moreover, the “[AQ] ppm by weight for RWBL Repellency 100%” value in the test with red-winged blackbirds [1] (100% repellency) is recorded as 1846 (1994*100/108) ppm by weight. Also, the “[AQ] ppm by weight for RWBL Repellency 80% (expected AQ concentration)” value in the test with red-winged blackbirds [2] was 1737 ((1846 − ppm by weight; in the test with red-winged blackbirds [2] (listed as AQ), 1737 ppm by weight; with red-winged blackbirds [2] (listed as straight AQ), 1737 ppm by weight.
